# pIC50, pKi: −log10 of the molar value. Active and inactive are the calls of the source. The calls are words filed in the database; no cut-off is given here.
# Assays:
# Cholinesterase [1] = molecular target: T1, Cholinesterase (Homo sapiens, UniProt P06276); assay: Inhibition of BChE (unknown origin)
# Acetylcholinesterase [2] = molecular target: T2, Acetylcholinesterase (Homo sapiens, UniProt P22303); assay: Inhibition of human AChE by Ellman's method
# Cholinesterase [3] = molecular target: T1, Cholinesterase; assay: Inhibition of human BChE by Ellman's method
# Beta-secretase 1 = Beta-secretase 1 (Homo sapiens, UniProt P56817); assay: Inhibition of human BACE-1 by FRET assay
# [4] = Permeability of the compound at 25 ug/ml after 18 hrs by PAMPA-BBB assay
# Cholinesterase [5] = molecular target: Cholinesterase (Equus caballus, UniProt P81908); assay: Inhibition of equine serum BuChE by Ellman's method
# Rattus norvegicus [6] = species: Rattus norvegicus; details: Wistar, dose 5.0 mg/kg, time 7.0 day
# Rattus norvegicus [7] = assay: Cognitive enhancing effect in scopolamine-induced Wistar rat model of amnesia assessed as effect on total arm entries at 5 mg/kg, po pretreated for 7 days followed by scopolamine challenge by Y-maze test; type: functional, organism-based; details: time 7.0 day
# Rattus norvegicus [8] = assay: Cognitive enhancing effect in scopolamine-induced Wistar rat model of amnesia assessed as increase in spontaneous alteration at 10 mg/kg, po pretreated for 7 days followed by scopolamine challenge by Y-maze test; type: functional, organism-based; details: time 7.0 day
# Rattus norvegicus [9] = assay: Ex vivo inhibition of AChE in brain of scopolamine-induced Wistar rat model of amnesia at 2.5 to 10 mg/kg, po pretreated for 7 days followed by scopolamine challenge using acetylthiocholine iodide as substrate by Ellman's method; type: functional, organism-based; details: dose mg/kg 2.5-10, time 7.0 day
# Rattus norvegicus [10] = assay: Antioxidant activity in scopolamine-induced Wistar rat model of amnesia assessed as decrease in MDA level at 2.5 to 10 mg/kg, po pretreated for 7 days followed by scopolamine challenge […]; type: functional, organism-based; details: dose mg/kg 2.5-10, time 7.0 day
# [11] = Acute toxicity in po dosed Wistar rat assessed as maximum tolerated dose by OCED guideline method; type: organism-based; details: in vivo
# Rattus norvegicus [12] = assay: Cognitive enhancing effect in scopolamine-induced Wistar rat model of amnesia assessed as effect on total arm entries at 2.5 to 10 mg/kg, po pretreated for 7 days followed by scopolamine challenge by Y-maze test; type: functional, organism-based; details: dose mg/kg 2.5-10, time 7.0 day
# Rattus norvegicus [13] = assay: Cognitive enhancing effect in po dosed scopolamine-induced Wistar rat model of amnesia assessed as increase in spontaneous alteration pretreated for 7 days followed by scopolamine challenge by Y-maze test; type: functional, organism-based; details: dose mg/kg 5-10, time 7.0 day
# SH-SY5Y = assay: Neuroprotective activity against amyloid beta (1 to 42)-induced oxidative stress in human SH-SY5Y cells assessed as effect on cell viability at 10 to 80 uM measured after 24 hrs by MTT assay (reference value: 62.1 %); type: functional; details: dose microM 10-80
# [14] = Acute toxicity in Wistar rat assessed as abnormal signs at 175 to 1750 mg/kg, po measured up to 14 days by OCED guideline method; type: organism-based; details: in vivo, 336 h, dose 175-1750 mg/kg, time <=14 day
# Rattus norvegicus [15] = assay: Antioxidant activity in scopolamine-induced Wistar rat model of amnesia assessed as increase in SOD level at 2.5 to 10 mg/kg, po pretreated for 7 days followed by scopolamine challenge […]; type: functional, organism-based; details: dose mg/kg 2.5-10, time 7.0 day
# Acetylcholinesterase [16] = molecular target: T2, Acetylcholinesterase; assay: Mixed type inhibition of human AChE assessed as increase in Km using varying level acetylthiocholine iodide as substrate by Lineweaver-Burk plot analysis
# [17] = Half life in Wistar rat at 10 mg/kg, po measured up to 48 hrs; type: ADME, organism-based; details: in vivo
# [18] = Tmax in Wistar rat at 10 mg/kg, po measured up to 48 hrs; type: ADME, organism-based; details: in vivo
# Rattus norvegicus [19] = assay: Cognitive enhancing effect in scopolamine-induced Wistar rat model of amnesia assessed as effect on total arm entries at 10 mg/kg, po pretreated for 7 days followed by scopolamine challenge by Y-maze test; type: functional, organism-based; details: time 7.0 day
# Acetylcholinesterase [20] = molecular target: T2, Acetylcholinesterase; assay: Mixed type inhibition of human AChE assessed as decrease in Vmax using varying level of acetylthiocholine iodide as substrate by Lineweaver-Burk plot analysis
# Rattus norvegicus [21] = assay: Improvement in learning and spatial memory in icv infused amyloid beta (1 to 42)-induced rat model of Alzheimer's disease assessed as increase in number of platform crossing at 10 mg/kg, po administered for 9 consecutive days starting from 7 days post surgery and measured daily for 5 days by Morris water maze test; type: functional, organism-based; details: time 9.0 day
# [22] = AUC (0 to 48 hrs) in Wistar rat at 10 mg/kg, po measured up to 48 hrs; type: ADME, organism-based; parameters: route oral, dose 10 mg/kg, time <=48; details: in vivo
# Rattus norvegicus [23] = assay: Improvement in learning and spatial memory in icv infused amyloid beta (1 to 42)-induced rat model of Alzheimer's disease assessed as reduction in escape latency at 10 mg/kg, po administered for 9 consecutive days starting from 7 days post surgery and measured daily for 5 days by Morris water maze test; type: functional, organism-based; details: time 9.0 day
# Acetylcholinesterase [24] = molecular target: T2, Acetylcholinesterase; assay: Mixed type inhibition of human AChE assessed as dissociation constant using varying level acetylthiocholine iodide as substrate by Dixon plot analysis
# [25] = MRT in Wistar rat at 10 mg/kg, po measured up to 48 hrs; type: ADME, organism-based; details: in vivo
# [26] = Cmax in Wistar rat at 10 mg/kg, po measured up to 48 hrs; type: ADME, organism-based; parameters: route oral, dose 10 mg/kg, time <=48; details: in vivo
# Sequence of Beta-secretase 1 (P56817 whole entry): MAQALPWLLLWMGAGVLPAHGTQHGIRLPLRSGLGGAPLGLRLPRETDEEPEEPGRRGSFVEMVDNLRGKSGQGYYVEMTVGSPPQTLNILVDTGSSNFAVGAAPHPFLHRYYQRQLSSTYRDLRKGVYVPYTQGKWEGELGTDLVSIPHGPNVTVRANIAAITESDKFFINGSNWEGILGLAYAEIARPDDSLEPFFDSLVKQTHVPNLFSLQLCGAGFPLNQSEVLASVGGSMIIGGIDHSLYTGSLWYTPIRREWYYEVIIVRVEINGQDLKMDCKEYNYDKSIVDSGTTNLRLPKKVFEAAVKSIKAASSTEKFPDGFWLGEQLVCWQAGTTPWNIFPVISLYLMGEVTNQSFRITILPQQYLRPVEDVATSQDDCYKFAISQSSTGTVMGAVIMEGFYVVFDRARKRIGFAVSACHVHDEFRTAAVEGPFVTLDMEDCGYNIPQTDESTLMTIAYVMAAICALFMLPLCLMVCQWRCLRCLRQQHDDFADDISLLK
# T2 sequence (P22303 whole entry): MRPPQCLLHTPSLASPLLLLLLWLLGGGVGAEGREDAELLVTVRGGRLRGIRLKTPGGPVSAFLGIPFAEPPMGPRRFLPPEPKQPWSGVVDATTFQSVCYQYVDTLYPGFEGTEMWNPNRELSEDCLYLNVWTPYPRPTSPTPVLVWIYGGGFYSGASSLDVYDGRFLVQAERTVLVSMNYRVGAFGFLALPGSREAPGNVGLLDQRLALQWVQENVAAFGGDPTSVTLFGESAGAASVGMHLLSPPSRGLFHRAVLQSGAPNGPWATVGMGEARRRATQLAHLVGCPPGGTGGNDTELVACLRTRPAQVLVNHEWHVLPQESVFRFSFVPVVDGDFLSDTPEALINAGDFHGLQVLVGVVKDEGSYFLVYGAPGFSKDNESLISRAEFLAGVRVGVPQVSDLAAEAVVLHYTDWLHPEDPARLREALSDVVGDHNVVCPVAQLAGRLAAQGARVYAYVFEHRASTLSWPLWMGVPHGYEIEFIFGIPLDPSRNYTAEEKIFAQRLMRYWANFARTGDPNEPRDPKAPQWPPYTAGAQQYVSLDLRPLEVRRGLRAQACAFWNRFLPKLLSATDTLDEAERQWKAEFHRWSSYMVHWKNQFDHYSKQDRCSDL
# T1 sequence (P06276 whole entry): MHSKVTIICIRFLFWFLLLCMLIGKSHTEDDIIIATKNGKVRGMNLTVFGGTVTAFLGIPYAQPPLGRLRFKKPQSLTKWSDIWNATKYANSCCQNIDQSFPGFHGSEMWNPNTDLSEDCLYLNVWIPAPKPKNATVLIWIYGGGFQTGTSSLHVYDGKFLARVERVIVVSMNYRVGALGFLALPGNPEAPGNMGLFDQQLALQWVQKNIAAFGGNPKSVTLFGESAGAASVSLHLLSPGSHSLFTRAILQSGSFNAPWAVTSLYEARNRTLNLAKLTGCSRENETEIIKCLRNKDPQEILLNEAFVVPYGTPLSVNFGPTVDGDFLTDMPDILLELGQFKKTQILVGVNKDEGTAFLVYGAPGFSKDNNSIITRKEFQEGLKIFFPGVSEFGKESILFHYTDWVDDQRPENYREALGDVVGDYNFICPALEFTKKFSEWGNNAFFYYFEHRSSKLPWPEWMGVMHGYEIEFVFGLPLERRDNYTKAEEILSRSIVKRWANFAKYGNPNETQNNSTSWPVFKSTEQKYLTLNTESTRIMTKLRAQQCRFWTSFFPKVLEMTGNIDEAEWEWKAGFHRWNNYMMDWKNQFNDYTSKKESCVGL
# Sequence of Cholinesterase (Equus caballus, UniProt P81908) (P81908 whole entry): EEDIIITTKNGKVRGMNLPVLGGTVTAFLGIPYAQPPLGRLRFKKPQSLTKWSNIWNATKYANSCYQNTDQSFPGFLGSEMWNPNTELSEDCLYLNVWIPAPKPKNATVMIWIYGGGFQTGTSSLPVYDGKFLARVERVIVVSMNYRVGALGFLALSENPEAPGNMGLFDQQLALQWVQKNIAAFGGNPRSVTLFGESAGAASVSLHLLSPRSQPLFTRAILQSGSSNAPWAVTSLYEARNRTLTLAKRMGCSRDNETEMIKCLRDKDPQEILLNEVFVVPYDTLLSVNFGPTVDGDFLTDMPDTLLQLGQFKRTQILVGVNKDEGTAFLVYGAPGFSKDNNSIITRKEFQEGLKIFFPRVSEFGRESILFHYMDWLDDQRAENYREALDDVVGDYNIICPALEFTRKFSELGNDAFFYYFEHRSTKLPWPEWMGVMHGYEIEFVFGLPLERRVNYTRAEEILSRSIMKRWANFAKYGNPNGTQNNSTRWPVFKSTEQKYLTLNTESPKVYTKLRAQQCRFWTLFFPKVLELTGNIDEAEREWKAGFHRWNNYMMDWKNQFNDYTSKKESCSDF
Compound,pIC50 (Acetylcholinesterase [2]),pIC50 (Cholinesterase [3]),pIC50 (Beta-secretase 1),also measured
c1ccc(CC2CCCN(CCNC3CCN(Cc4ccccc4)C3)C2)cc1 (stereo not drawn),,,,pIC50 (Cholinesterase [1]): 5.74
COc1cccc(CNC2CCN(Cc3ccccc3)C2)c1OC (stereo not drawn),5.36,5.26,5.54,
Oc1ccc(CNC2CCN(Cc3ccccc3)C2)c(O)c1 (stereo not drawn),5.82,5.57,6.32,
Cc1cccc(/C=N\C2CCN(Cc3ccccc3)C2)c1 (stereo not drawn),< 5.00,5.24,,
Brc1ccc(/C=N\C2CCN(Cc3ccccc3)C2)cc1 (stereo not drawn),5.89,5.93,5.76,
Oc1ccc(/C=N\C2CCN(Cc3ccccc3)C2)cc1 (stereo not drawn),5.25,5.63,5.34,
Oc1ccccc1/C=N\C1CCN(Cc2ccccc2)C1 (stereo not drawn),< 5.00,5.38,,
O=[N+]([O-])c1ccc(/C=N\C2CCN(Cc3ccccc3)C2)cc1 (stereo not drawn),5.61,5.63,5.42,
Fc1ccc(/C=N\C2CCN(Cc3ccccc3)C2)cc1 (stereo not drawn),5.97,5.98,5.71,
C(=N/C1CCN(Cc2ccccc2)C1)/c1ccccc1 (stereo not drawn),5.38,5.57,5.36,
Fc1ccc(CNC2CCN(Cc3ccccc3)C2)cc1 (stereo not drawn),6.83,6.10,6.08,"Papp at 18 h, 25 ug/ml [4]: 4.2 ×10⁻⁶ cm/s"
Oc1ccccc1CNC1CCN(Cc2ccccc2)C1 (stereo not drawn),5.65,5.56,5.62,
Oc1ccc(/C=N\C2CCN(Cc3ccccc3)C2)c(O)c1 (stereo not drawn),5.43,5.48,5.35,
Cc1cccc(CNC2CCN(Cc3ccccc3)C2)c1 (stereo not drawn),< 5.00,5.53,,
Fc1ccc(/C=N\C2CCN(Cc3ccccc3)C2)c(F)c1 (stereo not drawn),6.02,5.86,5.58,
FC(F)(F)c1ccc(CNC2CCN(Cc3ccccc3)C2)cc1 (stereo not drawn),6.89,6.01,6.01,"Papp at 18 h, 25 ug/ml [4]: 6.3 ×10⁻⁶ cm/s"
Cc1c(OCc2ccccc2)cccc1N1CCN(CCNC2CCN(Cc3ccccc3)C2)CC1 (stereo not drawn),,,,pIC50 (Cholinesterase [5]): 5.11

Compound,pIC50 (Acetylcholinesterase [2]),pIC50 (Cholinesterase [3]),pIC50 (Beta-secretase 1),also measured
FC(F)(F)c1ccc(/C=N\C2CCN(Cc3ccccc3)C2)cc1 (stereo not drawn),5.98,5.67,6.17,
Clc1ccc(/C=N\C2CCN(Cc3ccccc3)C2)cc1 (stereo not drawn),5.91,5.93,5.90,
COc1cc2c(cc1OC)C(=O)C(CC1CCN(Cc3ccccc3)CC1)C2 (stereo not drawn),,,,inhibition (Rattus norvegicus [6]): Active; Activity (Rattus norvegicus [7]): inactive
Cc1ccc(CNC2CCN(Cc3ccccc3)C2)cc1 (stereo not drawn),5.19,5.06,5.65,
Oc1ccc(CNC2CCN(Cc3ccccc3)C2)cc1 (stereo not drawn),5.76,5.71,6.01,
COc1cccc(/C=N\C2CCN(Cc3ccccc3)C2)c1OC (stereo not drawn),< 5.00,5.37,,
Clc1ccc(CNC2CCN(Cc3ccccc3)C2)cc1 (stereo not drawn),6.75,6.58,6.79,"Papp at 18 h, 25 ug/ml [4]: 4.1 ×10⁻⁶ cm/s"
Fc1ccc(CNC2CCN(Cc3ccccc3)C2)c(F)c1 (stereo not drawn),7.16,6.90,7.01,"Activity (Rattus norvegicus [8]): Active; inhibition (Rattus norvegicus [9]): Active; Activity (Rattus norvegicus [10]): Active; MTD [11]: 1750 mg/kg; Activity (Rattus norvegicus [12]): inactive; Activity (Rattus norvegicus [13]): Dose-dependent effect; Activity (SH-SY5Y): 66.8%; Activity [14]: Non-Toxic; Papp at 18 h, 25 ug/ml [4]: 5.8 ×10⁻⁶ cm/s; Activity (Rattus norvegicus [15]): Active"
COc1cc(/C=N\C2CCN(Cc3ccccc3)C2)cc(OC)c1OC (stereo not drawn),5.11,5.46,< 5.00,
FC(F)(F)Oc1ccc(CNC2CCN(Cc3ccccc3)C2)cc1 (stereo not drawn),7.24,7.09,6.94,"Activity (Rattus norvegicus [8]): Active; inhibition (Rattus norvegicus [9]): Active; inhibition (Acetylcholinesterase [16]): Active; Activity (Rattus norvegicus [10]): Active; MTD [11]: 750 mg/kg; half-life [17]: 15.7 h; Tmax [18]: 3.3 h; Activity (Rattus norvegicus [19]): inactive; inhibition (Acetylcholinesterase [20]): Active; Activity (Rattus norvegicus [21]): Active; Activity (Rattus norvegicus [13]): Dose-dependent effect; Activity (SH-SY5Y): 71.5%; AUC(0-t) [22]: 5460 ng·h/mL; Activity [14]: Non-Toxic; Activity (Rattus norvegicus [23]): Active; pKi (Acetylcholinesterase [24]): 7.64; Papp at 18 h, 25 ug/ml [4]: 6.9 ×10⁻⁶ cm/s; MRT [25]: 22.7 h; Activity (Rattus norvegicus [15]): Active; Cmax [26]: 272 ng/mL"
FC(F)(F)Oc1ccc(/C=N\C2CCN(Cc3ccccc3)C2)cc1 (stereo not drawn),6.06,6.16,5.68,
c1ccc(CNC2CCN(Cc3ccccc3)C2)cc1 (stereo not drawn),5.95,5.80,5.62,
COc1cc(CNC2CCN(Cc3ccccc3)C2)cc(OC)c1OC (stereo not drawn),5.51,5.49,6.07,
O=[N+]([O-])c1ccc(CNC2CCN(Cc3ccccc3)C2)cc1 (stereo not drawn),6.13,5.87,5.74,
Brc1ccc(CNC2CCN(Cc3ccccc3)C2)cc1 (stereo not drawn),6.88,6.12,6.19,"Papp at 18 h, 25 ug/ml [4]: 5.1 ×10⁻⁶ cm/s"
Cc1ccc(/C=N\C2CCN(Cc3ccccc3)C2)cc1 (stereo not drawn),< 5.00,5.31,,

# From ChEMBL document CHEMBL4699547, “Design, synthesis, and multitargeted profiling of N-benzylpyrrolidine derivatives for the treatment of Alzheimer's disease” (Bioorg Med Chem, 2020)
